Measurements from patent US20120040394A1, “MICROTUMOURS” (priority 2008, published 2012).

System: DLD1 cells
Test: Effect of anti-cancer drug on cellular acidity (AO red fluorescence, flow cytometry) and cell growth
Type: cell-based, human
Settings: DLD1 versus NCl/Adr cells at a given dose; AO red fluorescence after 6 hours exposure; growth 3 days after addition of drug, hemacytometer and trypan blue exclusion; FIG. 5
Protocol: Cells plated at 25% confluency were exposed to various doses of the drug for 6 hours and stained with AO (1 μg/ml, final concentration) for 30 minutes. Cells were washed 3× with PBS to remove residual stain, trypsinized to obtain a liquid suspension and assessed on a flow cytometer (FACSCalibur, Becton Dickinson San Jose Calif.). The red fluorescence of AO emanating from the cells was recorded on a linear scale in the cytometer's FL2 channel (emission filter >600 nm). A total of 30K cells were collected for post acquisition analysis with WinMDI Version 2.8 software (The Scripps Research Institute, La Jolla, Calif.). […] FIG. 5b plots the geometric mean of AO red fluorescence channel intensity against drug concentration for both DLD1 and NCl/Adr cells. In parallel cultures, cells were assessed for growth 3 days after the addition of drug (FIG. 5 c) —cells were enumerated with a hemacytometer and trypan blue exclusion staining.

## CC(=O)O[C@H]1C(=O)[C@@]2(C)[C@H]([C@H](OC(=O)c3ccccc3)[C@]3(O)C[C@H](OC(=O)[C@H](O)[C@@H](NC(=O)c4ccccc4)c4ccccc4)C(C)=C1C3(C)C)[C@]1(OC(C)=O)CO[C@@H]1C[C@@H]2O [paclitaxel]
  sensitivity of cancer cells to the drug (cell growth, reflected by acidic content of cells): DLD1 cells are more sensitive to paclitaxel than NCl/Adr
